Results from US20100310543A1, “METHOD OF PREVENTING AND TREATING ACUTE BRAIN PATHOLOGIES” (UNIVERSITY OF ZURICH, priority 2007, published 2010).
“And” between values parts separate entries of the source, which are not always exact repeats. Equal entries are not always repeated. Where two headings read alike, the source gives them in different places.

Tests used:
[1] = system: acute hippocampal slices (area CA1); assay: f-EPSP recovery after transient OGD in acute hippocampal slices; assay type: cell-based, mouse; settings: for mean f-EPSP slope 80-90 min after the onset of OGD: 25 min OGD, % of pre-OGD baseline
Description: (§1) Adult mice were killed by cervical dislocation and the heads were immediately immersed in freshly prepared ice-cold artificial cerebrospinal fluid (aCSF: 119 mM NaCl, 11 mM D-glucose, 1.3 mM MgCl2.6H2O, 1.3 mM NaH2PO4, 2.5 mM KCl, 2.5 mM CaCl2, 26 mM NaHCO3, gassed with 95% O2/5% CO2 for a minimum of 20-min) for at least 3 min. Brains were quickly removed and hippocampi were extracted for electrophysiological recordings. Acute slices (400 μm thick) were prepared with a vibratome (Leica VT 1000S, Germany) in ice-cold oxygenated aCSF. Slices were transferred to an interface chamber at 34° C. for 40 to 50 min then kept at room temperature for at least 1-2 hours before recording. Recordings were performed in a submersion chamber (Slice Mini Chamber III/IV, Luigs & Neumann, Germany) continuously perfused with aCSF at approximately 1.1 ml/min. A monopolar electrode was placed in the stratum radiatum to activate Schaffer collaterals and test stimuli were applied at 0.033 Hz at an intensity set to evoke 1/3 of the maximum f-EPSP. Evoked f-EPSP were recorded in the stratum radiatum with a borosilicate micropipette filled with NaCl 3M or aCSF. The signal was amplified with an AXOPATCH 200B amplifier (Axon Instruments/Molecular Devices, Germany) and sampled using pCLAMP. Baseline responses were recorded for 10-min or until stable. For extracellular recordings in example 8, a monopolar electrode is placed in the Schaffer collateral fibers, and stimulation is applied at 0.033 Hz with stimulus intensity ranging from 20 to 80 μA, yielding evoked field EPSPs (fEPSPs) of […]. fEPSPs are recorded in the stratum radiatum using a borosilicate micropipette filled with aCSF.
For each electrophysiological experiment, the average slope of individual f-EPSP was measured from the initial 1-1.5 ms-portion following the fiber volley using Clampfit (Axon Instruments, Germany). For statistical analyses, the f-EPSP slope was averaged over 1-min and analyzed by three-way analysis of variance (ANOVA) using Statview 5.0 with sequences (10-min) and stimulation (1-min bins) as repeated measures. […] Infarct volume and DNA fragmentation were analyzed by two-tailed t-tests. Western blots were evaluated by one-way ANOVA followed by LSD post-hoc tests. Statistical significance was set at p=0.05, data are presented as mean±SEM.
Graded doses of OA were used to inhibit both PP1 and PP2A, or PP2A alone.

PP1 [2] = settings: literature ranges, cited from earlier work
PP2A = settings: literature ranges, cited from earlier work
hippocampal slices = settings: 1 μM OA; cited from earlier work
[3] = system: hippocampal slices (Schaffer collaterals/CA1); assay: LTD (f-EPSP slope) in hippocampal slices; assay type: cell-based, mouse; settings: 1 nM tautomycin, LTD without OGD
Description: as §1, with “1.1 ml/min. […] Evoked f-EPSP” for “1.1 ml/min. A monopolar electrode was placed in the stratum radiatum to activate Schaffer collaterals and test stimuli were applied at 0.033 Hz at an intensity set to evoke 1/3 of the maximum f-EPSP. Evoked f-EPSP”, “or aCSF. […] Baseline responses” for “or aCSF. The signal was amplified with an AXOPATCH 200B amplifier (Axon Instruments/Molecular Devices, Germany) and sampled using pCLAMP. Baseline responses”, “with aCSF. […]” for “with aCSF.”

PP1 [4] = settings: 1 nM tautomycin (submaximal dose); cited from earlier work
ERK1 = assay: Western blot of phosphorylated ERK1 in slices subjected to OGD; settings: control slices treated with tautomycin (3 nM) and subjected to OGD
Description: (§2) Acute slices (hippocampus, cortex and striatum) were exposed to 15 to 25-min of hypoxic/aglycemic conditions by perfusion with aCSF containing no glucose (replaced with equimolar sucrose) and gassed with N2/CO2 (95/5%) (Lobner and Lipton, 1993; Raley-Susman and Lipton, 1990). […] The OGD solution reached the recording chamber within 30 seconds and replaced the normoxic aCSF within 2-3 min.
(§3) Drugs for slice recordings were bath-applied for 2 hours before recording in oxygenated aCSF. Okadaic acid (Alexis Corporation, Switzerland) and tautomycin (Alexis Corporation and Sigma Aldrich, Switzerland) were dissolved in DMSO (30 mM) and methanol or ethanol (1 mM), respectively, and stock solutions were diluted further in aCSF the day of the experiment. The respective solvents were used for drug-control experiments. For both mutant and control slices, the aCSF was supplemented with doxycycline hydrochloride (Sigma, Buchs, Switzerland) at 8 ng/ml.
(§4) Tissue samples from the striatum ipsilateral and contralateral to MCAO or from acute forebrain slices (hippocampus, cortex and striatum) were homogenized in lysis buffer and centrifuged. Supernatants were resolved on SDS-PAGE and proteins were transferred onto PVDF membranes. […] The band intensity was determined by densitometry and corrected for protein loading using anti-β-actin antibody (A5316; Sigma) as an internal control.

ERK2 = assay: Western blot of phosphorylated ERK2 in slices subjected to OGD; settings: control slices treated with tautomycin (3 nM) and subjected to OGD
Description: as §2, §3, §4

JNK1 = assay: Western blot of phosphorylated JNK1 in slices subjected to OGD; settings: PP1 inhibition (tautomycin) or OGD in vitro
Description: as §2, §3, §4

JNK2 = assay: Western blot of phosphorylated JNK2 in slices subjected to OGD; settings: PP1 inhibition (tautomycin) in vitro
Description: as §2, §3, §4

Row | Compound | mean f-EPSP slope 80-90 min after the onset of OGD ([1]; 0.1 nM drug) [%] | mean f-EPSP slope 80-90 min after the onset of OGD ([1]; 1 nM drug) [%] | mean f-EPSP slope 80-90 min after the onset of OGD ([1]; 10 nM drug) [%] | mean f-EPSP slope 80-90 min after the onset of OGD ([1]; 100 nM drug) | mean f-EPSP slope 80-90 min after the onset of OGD ([1]; 1 μM drug) | IC50 (PP1 [2]) [nM] | IC50 (PP1 [2]; listed as okadaic acid) [nM] | IC50 (PP2A) | IC50 (PP2A; listed as okadaic acid) [nM] | effect on LTP induced by a single 1-sec train at 100 Hz (hippocampal slices) | f-EPSP slope after LTD+OGD, % of baseline 90 min after LTD induction ([1]; 1 nM tautomycin, I-1* mutant slices, LTD 10 min prior to OGD) [%] | mean f-EPSP slope 80-90 min after the onset of OGD ([1]; 3 nM drug) [%] | f-EPSP slope after LTD, % of baseline at 90 min ([3]; I-1* mutant slices) [%] | f-EPSP slope after LTD, % of baseline at 90 min ([3]; control slices) [%] | PP1 inhibition (PP1 [4]) | increase in phosphorylated ERK1 (ERK1) | increase in phosphorylated ERK2 (ERK2) | JNK1 phosphorylation (JNK1) | phosphorylated JNK2 (JNK2)
1 | C=C1[C@@H](O)[C@@H]2O[C@]3(CC[C@H](/C=C/[C@@H](C)[C@@H]4CC(C)=C[C@@]5(O[C@H](C[C@@](C)(O)C(=O)O)CC[C@H]5O)O4)O3)CC[C@H]2O[C@@H]1[C@@H](O)C[C@H](C)[C@H]1O[C@@]2(CCCCO2)CC[C@H]1C [OA, okadaic acid] | 76.6±20.5 | 86.8±5.2 | 56.6±23.9 | 43.5±16.6% and 43.1±15.6% | 20.2±13.9% and 20.3±14.4% | 20 to 100 | 10 to 1300 | 0.1 to 1 nM | 0.02 to 1 | blocked | – | – | – | – | – | – | – | – | –
2 | CO[C@H]([C@H](O)CC(=O)[C@@H](C)[C@@H](O)CC[C@@H](C)[C@@H]1O[C@]2(CC[C@@H](C)[C@H](CC[C@H](C)C(C)=O)O2)CC[C@@H]1C)[C@H](OC(=O)C[C@@H](O)C1=C(C)C(=O)OC1=O)C(C)C [tautomycin] | – | 88.6±1.5 | 4.4±2.9 | 0.9±1.3% | – | – | – | 10 to 23 nM and 10 to 20 nM | – | – | 37.0±10.8 | 31.4±4.6 | 96.3±3.6 | 85.2±3.0 | about 30% | +366.8±48.6% | +404.1±28.5% | not altered | did not increase
